Experimental data as given in patent US10227324B2 (Shanghai Haiyan Pharmaceutical Technology Co., Ltd., priority 2014, dated 2019).
Like-named read-outs stand apart in the source and are kept apart here.

Experiments:
[1] = target: T1, PI3K-α kinase (p110α/p85α) (Homo sapiens, UniProt P42336); assay: Determination of PI3K kinase activity (ADP Transcreener, fluorescence polarization); format: biochemical; conditions: ATP 10 μM
T1 construct: purchased Invitrogen PV4788
Experimental: (§1) The inhibition of PI3K kinase activity by the compound to be tested was determined by the following method. The working concentration of each component in the 25 μL enzyme reaction system was: p110α/p85α 3 ng (or p110β/p85α 60 ng, or p110δ/p85α 90 ng, or p110γ 100 ng), ATP 10 μM, PIP2: PS (Invitrogen PV5100) 30 μM and the DMSO concentration was 2% after addition of the compound to be tested.
(§2) At the time of the test, the compound to be tested was dissolved in dimethylsulfoxide (DMSO) according to the desired concentration of the experiment. The compound to be tested was gradiently diluted 3 times (0.00046-1 μM, 8 concentration points) with 10% DMSO. 5 μL of the compound to be tested was added to each well of a 96-well plate (Greiner 675076) in duplicate. […] 10 μL of ATP/PIP2: PS and 10 μL of the PI3K enzyme working solution were added to each well in a 96-well plate. The plate was shaken and mixed uniformly, and then incubated at 25° C. for 1 hour. At the same time, ADP and ATP (0.01 μM, 0.02 μM, 0.04 μM, 0.06 μM, 0.08 μM[…], 0.1 μM, 0.25 μM, 0.5 μM, 1 μM, 2 μM, 5 μM, 10 μM, 12 concentration points) were diluted with buffer to set the standard curve. After completion of the enzyme reaction, 25 μL of ADP assay solution (1% 100×ADP tracer, 0.79% ADP antibody and 10% 10× reaction stop solution) was added and incubated at 25° C. for 1 hour. Fluorescence polarization value [mP] of each well was measured with a Perkin Elmer Victor X5 Fluorescent Microplate. The ADP concentration [ADP] was calculated from the ADP/ATP standard curve and the IC50 values were calculated using the XLFit software.

PI3K-γ kinase (p110γ) = target: T2, PI3K-γ kinase (p110γ) (Homo sapiens, UniProt P48736); assay: as above; format: biochemical; conditions: Table 1; ATP 10 μM; read-out: PI3K-γ/nM (IC50 of inhibitory activity against PI3K kinase)
T2 construct: purchased Invitrogen PV4786
Experimental: The PI3K kinase used in the experiment: p110α/p85α (Invitrogen PV4788), p110β/p85α (Millipore 14-603), p110δ/p85α (Millipore 14-604M), and p110γ (Invitrogen PV4786).
as §1
as §2, with “duplicate. 2.5× buffer was prepared and 1 μL of DTT (Millipore 20-265) was added to each 800 μL of 2.5× buffer.” for “duplicate.”

[2] = target: T3, PI3K-β kinase (p110β/p85α) (Homo sapiens, UniProt P42338); assay: as above; format: biochemical; conditions: Table 1; ATP 10 μM; read-out: PI3K-β/nM (IC50 of inhibitory activity against PI3K kinase)
T3 construct: purchased Millipore 14-603
Experimental: as §1, §2

[3] = target: T4, PI3K-δ kinase (p110δ/p85α) (Homo sapiens, UniProt O00329); assay: as above; format: biochemical; conditions: Table 1; ATP 10 μM; read-out: PI3K-δ/nM (IC50 of inhibitory activity against PI3K kinase)
T4 construct: purchased Millipore 14-604M
Experimental: as §1, §2

T47D cells = assay: Cell inhibitory activity detected by MTT assay, T47D; format: cell-based; conditions: Homo sapiens, T47D, 72 h, read-out: T47D cell (IC50/nM), cell growth inhibition
Experimental: (§3) The MTT assay procedure and steps were carried out as well known to those skilled in the art, and all the reagents used in the methods were commercially available. The cells in logarithmic growth phase were digested with 0.25% EDTA trypsin (Gibco, 25200-056) and resuspended in fresh medium. 90 μL of the cell suspension was inoculated into a 96-well cell culture plate (BD Faclon 353072) with a suitable cell density and cultured at 37° C. under 5% CO2. After the cells adhered, 10 μL of the test compound at different concentrations (0.0046-10 μM, 8 concentration points) was added and incubated for another 72 h. 10 μL of MTT (5 mg/mL PBS solution) (Sigma, M5655) was added to react for 4 h. The absorbance at 492 nm was measured by using Thermo Scientific Multiskan MK3 microplate reader and IC50 was calculated using XLFIT 5.0 software (UK IDBS). T47D cell culture medium: RPMI-1640 medium (Hyclone SH30809.01B)+10% FBS (Gibco 10099-141)

MCF-7 cells = assay: Cell inhibitory activity detected by MTT assay, MCF-7; format: cell-based; conditions: Homo sapiens, MCF7, 72 h, read-out: MCF-7 cell (IC50/nM), cell growth inhibition
Experimental: as §3, with “MCF-7” for “T47D”, “DMEM” for “RPMI-1640”, “SH30243.01B+10%” for “SH30809.01B)+10%”

[4] = Table 2, read-out: PI3K-α/nM (IC50 of inhibitory activity against PI3K-α kinase)
[5] = Table 1, read-out: PI3K-α/nM (IC50 of inhibitory activity against PI3K kinase)

T2 sequence (P48736 whole entry): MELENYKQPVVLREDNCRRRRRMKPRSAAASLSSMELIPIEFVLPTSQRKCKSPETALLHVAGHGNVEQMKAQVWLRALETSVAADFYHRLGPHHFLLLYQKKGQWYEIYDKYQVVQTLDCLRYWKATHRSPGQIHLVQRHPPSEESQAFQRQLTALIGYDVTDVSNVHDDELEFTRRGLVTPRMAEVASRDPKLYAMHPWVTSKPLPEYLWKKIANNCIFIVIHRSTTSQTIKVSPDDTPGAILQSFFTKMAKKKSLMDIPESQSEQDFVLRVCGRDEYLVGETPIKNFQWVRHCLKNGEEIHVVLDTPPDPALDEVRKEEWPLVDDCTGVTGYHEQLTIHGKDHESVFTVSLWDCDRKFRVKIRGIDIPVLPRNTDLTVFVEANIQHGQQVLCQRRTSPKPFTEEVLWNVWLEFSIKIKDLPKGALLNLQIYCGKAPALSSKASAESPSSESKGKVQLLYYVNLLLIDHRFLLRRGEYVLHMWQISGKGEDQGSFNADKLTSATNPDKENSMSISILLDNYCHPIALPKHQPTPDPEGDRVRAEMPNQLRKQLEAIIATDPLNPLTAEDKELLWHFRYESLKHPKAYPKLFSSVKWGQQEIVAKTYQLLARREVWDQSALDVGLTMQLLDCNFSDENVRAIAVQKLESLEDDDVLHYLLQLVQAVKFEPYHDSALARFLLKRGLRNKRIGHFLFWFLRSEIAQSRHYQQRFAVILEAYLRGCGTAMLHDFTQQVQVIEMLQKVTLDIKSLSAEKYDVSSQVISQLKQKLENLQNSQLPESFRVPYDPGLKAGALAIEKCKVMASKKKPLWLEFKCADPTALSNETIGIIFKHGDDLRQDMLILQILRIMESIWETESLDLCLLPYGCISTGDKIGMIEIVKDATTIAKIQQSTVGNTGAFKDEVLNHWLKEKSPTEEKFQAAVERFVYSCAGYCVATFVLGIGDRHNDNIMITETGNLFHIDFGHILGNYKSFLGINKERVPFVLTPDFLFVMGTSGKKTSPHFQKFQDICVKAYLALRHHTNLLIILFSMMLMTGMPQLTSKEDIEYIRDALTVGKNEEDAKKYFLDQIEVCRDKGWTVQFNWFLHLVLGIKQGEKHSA
T1 sequence (P42336 whole entry): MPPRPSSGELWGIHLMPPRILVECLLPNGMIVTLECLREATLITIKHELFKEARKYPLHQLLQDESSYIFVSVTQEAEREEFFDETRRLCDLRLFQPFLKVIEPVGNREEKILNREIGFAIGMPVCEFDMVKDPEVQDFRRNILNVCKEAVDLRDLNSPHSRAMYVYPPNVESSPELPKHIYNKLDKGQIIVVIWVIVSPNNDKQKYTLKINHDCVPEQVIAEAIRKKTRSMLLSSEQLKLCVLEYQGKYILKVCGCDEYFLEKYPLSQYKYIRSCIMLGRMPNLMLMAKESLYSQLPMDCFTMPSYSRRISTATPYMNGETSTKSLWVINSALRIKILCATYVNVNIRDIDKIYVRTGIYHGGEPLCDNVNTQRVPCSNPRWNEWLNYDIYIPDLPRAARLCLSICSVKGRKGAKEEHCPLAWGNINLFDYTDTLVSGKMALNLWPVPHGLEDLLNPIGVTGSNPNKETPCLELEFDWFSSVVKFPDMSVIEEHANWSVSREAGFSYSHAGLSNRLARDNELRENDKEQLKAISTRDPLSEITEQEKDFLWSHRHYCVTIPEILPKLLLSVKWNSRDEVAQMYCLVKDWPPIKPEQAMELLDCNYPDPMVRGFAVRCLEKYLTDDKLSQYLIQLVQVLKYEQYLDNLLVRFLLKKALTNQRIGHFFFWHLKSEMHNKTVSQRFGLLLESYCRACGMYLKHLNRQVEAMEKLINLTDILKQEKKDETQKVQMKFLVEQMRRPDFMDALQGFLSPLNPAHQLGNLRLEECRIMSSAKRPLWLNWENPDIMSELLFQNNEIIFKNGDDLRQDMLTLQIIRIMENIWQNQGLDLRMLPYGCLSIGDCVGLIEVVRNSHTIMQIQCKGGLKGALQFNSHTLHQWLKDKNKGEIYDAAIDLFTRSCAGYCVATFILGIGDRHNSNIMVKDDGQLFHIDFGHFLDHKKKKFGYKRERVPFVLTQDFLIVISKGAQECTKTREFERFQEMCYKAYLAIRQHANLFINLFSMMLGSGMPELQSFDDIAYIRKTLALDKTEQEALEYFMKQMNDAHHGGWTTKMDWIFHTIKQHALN
T1 sequence (P27986 whole entry partner): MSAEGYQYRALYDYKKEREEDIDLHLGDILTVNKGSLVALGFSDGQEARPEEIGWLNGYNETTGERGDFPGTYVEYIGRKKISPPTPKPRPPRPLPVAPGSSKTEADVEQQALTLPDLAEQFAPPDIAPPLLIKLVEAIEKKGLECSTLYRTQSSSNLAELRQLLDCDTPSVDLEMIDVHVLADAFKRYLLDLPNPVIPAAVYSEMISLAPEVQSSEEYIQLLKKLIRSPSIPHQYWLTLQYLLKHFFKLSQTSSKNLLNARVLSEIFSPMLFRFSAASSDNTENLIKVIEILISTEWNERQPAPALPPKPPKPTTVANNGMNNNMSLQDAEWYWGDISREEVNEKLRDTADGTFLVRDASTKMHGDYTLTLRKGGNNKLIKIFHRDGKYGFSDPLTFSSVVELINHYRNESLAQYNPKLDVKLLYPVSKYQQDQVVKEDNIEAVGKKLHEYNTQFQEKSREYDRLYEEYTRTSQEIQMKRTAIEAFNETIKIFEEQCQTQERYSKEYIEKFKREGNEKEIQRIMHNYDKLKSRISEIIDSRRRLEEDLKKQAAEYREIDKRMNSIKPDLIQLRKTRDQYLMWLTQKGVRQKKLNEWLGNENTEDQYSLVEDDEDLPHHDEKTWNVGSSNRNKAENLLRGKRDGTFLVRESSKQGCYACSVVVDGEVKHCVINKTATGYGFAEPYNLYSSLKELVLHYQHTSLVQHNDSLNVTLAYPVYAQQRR
T3 sequence (P42338 whole entry): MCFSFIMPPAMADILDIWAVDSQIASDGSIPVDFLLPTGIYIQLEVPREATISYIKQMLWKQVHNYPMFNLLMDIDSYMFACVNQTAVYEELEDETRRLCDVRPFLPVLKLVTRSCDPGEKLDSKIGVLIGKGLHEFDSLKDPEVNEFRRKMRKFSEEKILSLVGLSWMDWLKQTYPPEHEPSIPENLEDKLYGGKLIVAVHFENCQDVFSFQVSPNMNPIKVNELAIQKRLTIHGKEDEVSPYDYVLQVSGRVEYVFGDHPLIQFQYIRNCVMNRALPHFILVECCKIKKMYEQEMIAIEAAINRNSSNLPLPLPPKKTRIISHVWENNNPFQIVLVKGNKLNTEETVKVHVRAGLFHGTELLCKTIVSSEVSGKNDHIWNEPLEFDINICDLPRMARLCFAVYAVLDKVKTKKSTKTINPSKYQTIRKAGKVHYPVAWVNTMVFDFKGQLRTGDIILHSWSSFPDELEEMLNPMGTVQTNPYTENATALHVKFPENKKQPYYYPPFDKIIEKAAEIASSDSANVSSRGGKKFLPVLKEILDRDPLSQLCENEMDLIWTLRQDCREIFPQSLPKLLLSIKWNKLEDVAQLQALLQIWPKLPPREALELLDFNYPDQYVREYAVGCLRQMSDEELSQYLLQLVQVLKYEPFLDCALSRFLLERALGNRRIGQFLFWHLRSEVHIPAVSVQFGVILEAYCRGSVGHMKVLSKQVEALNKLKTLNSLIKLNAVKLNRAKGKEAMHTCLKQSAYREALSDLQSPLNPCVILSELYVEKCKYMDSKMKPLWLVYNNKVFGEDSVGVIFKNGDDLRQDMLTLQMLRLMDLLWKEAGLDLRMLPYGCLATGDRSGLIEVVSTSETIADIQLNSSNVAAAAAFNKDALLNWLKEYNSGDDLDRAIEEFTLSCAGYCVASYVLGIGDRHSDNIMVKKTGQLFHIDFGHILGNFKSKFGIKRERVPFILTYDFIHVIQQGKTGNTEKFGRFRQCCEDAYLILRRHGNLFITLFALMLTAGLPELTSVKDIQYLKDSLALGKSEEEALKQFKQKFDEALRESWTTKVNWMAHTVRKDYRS
T3 sequence (P27986 whole entry partner): as the sequence (P27986 whole entry partner) above
T4 sequence (O00329 whole entry): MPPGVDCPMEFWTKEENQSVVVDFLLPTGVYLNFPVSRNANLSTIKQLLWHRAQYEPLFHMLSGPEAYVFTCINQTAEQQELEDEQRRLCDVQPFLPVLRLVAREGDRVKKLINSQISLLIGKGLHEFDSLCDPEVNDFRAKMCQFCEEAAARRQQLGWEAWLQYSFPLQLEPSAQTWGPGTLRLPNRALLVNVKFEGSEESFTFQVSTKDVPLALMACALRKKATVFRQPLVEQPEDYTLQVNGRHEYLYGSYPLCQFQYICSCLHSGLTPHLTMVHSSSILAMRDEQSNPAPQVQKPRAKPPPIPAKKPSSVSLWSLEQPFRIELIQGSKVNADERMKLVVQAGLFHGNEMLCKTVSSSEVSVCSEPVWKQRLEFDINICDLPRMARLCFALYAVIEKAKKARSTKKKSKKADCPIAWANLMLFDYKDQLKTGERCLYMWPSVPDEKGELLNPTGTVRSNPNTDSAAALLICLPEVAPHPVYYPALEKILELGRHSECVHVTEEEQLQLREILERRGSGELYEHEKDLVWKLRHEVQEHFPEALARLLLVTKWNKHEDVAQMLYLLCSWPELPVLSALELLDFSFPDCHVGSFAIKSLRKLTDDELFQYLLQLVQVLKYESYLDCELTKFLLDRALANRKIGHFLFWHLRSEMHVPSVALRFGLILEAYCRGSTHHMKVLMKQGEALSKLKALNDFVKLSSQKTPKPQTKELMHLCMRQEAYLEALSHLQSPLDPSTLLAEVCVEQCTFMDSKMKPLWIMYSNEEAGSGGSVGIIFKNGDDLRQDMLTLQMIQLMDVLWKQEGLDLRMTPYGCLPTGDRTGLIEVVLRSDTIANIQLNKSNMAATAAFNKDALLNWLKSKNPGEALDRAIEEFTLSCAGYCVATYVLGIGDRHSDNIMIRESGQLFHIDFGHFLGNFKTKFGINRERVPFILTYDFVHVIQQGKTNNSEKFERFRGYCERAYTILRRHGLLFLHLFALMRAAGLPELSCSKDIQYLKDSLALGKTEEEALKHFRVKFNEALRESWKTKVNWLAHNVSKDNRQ
T4 sequence (P27986 whole entry partner): as the sequence (P27986 whole entry partner) above

CS(=O)(=O)C1(c2cc(-c3ccc(N)cc3C(F)(F)F)nc(N3CCOCC3)n2)CC1 [Comparative compound 3, 4-(6-(1-(methylsulfonyl)cyclopropyl)-2-morpholinopyrimidin-4-yl)-3-(trifluoromethyl)aniline, reference compound]
IC50 [1, 4]: > 1000 nM

CS(=O)(=O)C1(c2cc(-c3cnc(N)cc3C(F)(F)F)nc(N3CCOCC3)n2)CC1 [Compound S-1, 5-(6-(1-(methylsulfonyl)cyclopropyl)-2-morpholinopyrimidin-4-yl)-4-(trifluoromethyl)pyridin-2-amine]
IC50 [1, 5]: 16 nM
IC50 (PI3K-γ kinase (p110γ)): 288 nM

CC(C)(c1cc(-c2cnc(N)cc2C(F)(F)F)nc(N2CCOCC2)n1)S(C)(=O)=O [Compound S-16]
IC50 [2]: 196 nM
IC50 [3]: 244 nM
IC50 (PI3K-γ kinase (p110γ)): 138 nM

CNC1(c2cc(-c3cnc(N)cc3C(F)(F)F)nc(N3CCOC[C@@H]3C)n2)CCC1 [Compound S-27, (S)-5-(6-(1-(methylamino)cyclobutyl)-2-(3-methylmorpholino)pyrimidin-4-yl)-4-(trifluoromethyl)pyridin-2-amine]
IC50 [1, 4]: 285 nM

CCS(=O)(=O)C1(c2cc(-c3cnc(N)cc3C(F)(F)F)nc(N3CCOCC3)n2)CC1 [Compound S-28]
IC50 [2]: 121 nM
IC50 [3]: 78 nM
IC50 (PI3K-γ kinase (p110γ)): 765 nM

C[C@H]1COCCN1c1nc(-c2cnc(N)cc2C(F)(F)F)cc(C2(S(C)(=O)=O)CCCC2)n1 [Compound S-42]
IC50 [2]: 1210 nM
IC50 [3]: 324 nM
IC50 (PI3K-γ kinase (p110γ)): 718 nM
IC50 (T47D cells): 139 nM
IC50 (MCF-7 cells): 159 nM

COc1nc(N)ncc1-c1cc(C2(S(C)(=O)=O)CCC2)nc(N2CCOC[C@@H]2C)n1 [Compound S-43]
IC50 (T47D cells): 317 nM

CC(C)(c1cc(-c2cnc(N)cc2Cl)nc(N2CCOCC2)n1)S(=O)(=O)c1ccccc1 [Compound S-55, 4-chloro-5-(2-morpholinyl-6-(2-(phenylsulfonyl)propan-2-yl)pyrimidin-4-yl)pyridin-2-amine]
IC50 [1, 4]: 40 nM

CC(C)(c1cc(-c2cnc(N)cc2C(F)(F)F)nc(N2CCOCC2)n1)S(=O)(=O)c1cccc(F)c1 [Compound S-60]
IC50 [1, 4]: 35 nM

Cc1cnc(C2(c3cc(-c4cnc(N)cc4C(F)(F)F)nc(N4CCOCC4)n3)CC2)o1 [Compound S-61, 5-(6-(1-(5-methyloxazol-2-yl)cyclopropyl)-2-morpholinopyrimidin-4-yl)-4-(trifluoromethyl)pyridin-2-amine]
IC50 [1, 4]: 195 nM

CS(=O)(=O)Cc1cc(-c2cnc(N)cc2C(F)(F)F)nc(N2CCOCC2)n1 [Compound S-62, 5-(6-(methylsulfonylmethyl)-2-morpholinopyrimidin-4-yl)-4-(trifluoromethyl)pyridin-2-amine]
IC50 [1, 4]: 189 nM

CC(C)(c1cc(-c2cnc(N)cc2C(F)(F)F)nc(N2CCOCC2)n1)S(=O)(=O)c1ccccc1F [Compound S-65]
IC50 [1, 5]: 22 nM
IC50 [1, 4]: 22 nM
IC50 [2]: 1220 nM
IC50 (T47D cells): 280 nM
IC50 (MCF-7 cells): 469 nM

CC(C)(c1cc(-c2cnc(N)cc2C(F)(F)F)nc(N2CCOCC2)n1)S(=O)(=O)c1ccc(F)cc1 [Compound S-69]
IC50 [1, 4]: 59 nM

CC(C)(c1cc(-c2cnc(N)cc2Cl)nc(N2CCOCC2)n1)S(=O)(=O)c1cccc(F)c1 [Compound S-70]
IC50 [1, 5]: 22 nM
IC50 [1, 4]: 22 nM
IC50 [2]: 525 nM
IC50 (T47D cells): 219 nM

C[C@@H]1COCCN1c1nc(-c2cnc(N)cc2C(F)(F)F)cc(C(C)(C)O)n1 [Compound S-72]
IC50 [1, 5]: 18 nM
IC50 [1, 4]: 18 nM
IC50 [2]: 797 nM
IC50 [3]: 370 nM
IC50 (PI3K-γ kinase (p110γ)): 1150 nM

C[C@H]1COCCN1c1nc(-c2cnc(N)cc2Cl)cc(C(C)(C)O)n1 [Compound S-73]
IC50 [1, 5]: 14 nM
IC50 [1, 4]: 14 nM
IC50 [2]: 396 nM
IC50 [3]: 514 nM
IC50 (PI3K-γ kinase (p110γ)): 623 nM
IC50 (MCF-7 cells): 176 nM

COC(C)(C)c1cc(-c2cnc(N)cc2C(F)(F)F)nc(N2CCOC[C@H]2C)n1 [Compound S-74]
IC50 [1, 5]: 28 nM
IC50 [1, 4]: 28 nM
IC50 [2]: 2090 nM
IC50 [3]: 1010 nM
IC50 (PI3K-γ kinase (p110γ)): 2500 nM

Nc1cc(C(F)(F)F)c(-c2cc(C3(S(=O)(=O)c4ccc(F)c(F)c4)CC3)nc(N3CCOCC3)n2)cn1 [Compound S-77]
IC50 [1, 4]: 62 nM

Nc1cc(C(F)(F)F)c(-c2cc(C3(S(=O)(=O)c4ccccc4Cl)CC3)nc(N3CCOCC3)n2)cn1 [Compound S-78]
IC50 [1, 5]: 7 nM
IC50 [1, 4]: 7 nM
IC50 [2]: 419 nM
IC50 [3]: 85 nM
IC50 (PI3K-γ kinase (p110γ)): 925 nM
IC50 (T47D cells): 206 nM
IC50 (MCF-7 cells): 318 nM

CC(C)(c1cc(-c2cnc(N)cc2C(F)(F)F)nc(N2CCOCC2)n1)S(=O)(=O)c1ccc(F)c(F)c1 [Compound S-79]
IC50 [1, 4]: 55 nM

CC(C)(c1cc(-c2cnc(N)cc2C(F)(F)F)nc(N2CCOCC2)n1)S(=O)(=O)c1ccccc1Cl [Compound S-80]
IC50 [1, 4]: 31 nM
IC50 (MCF-7 cells): 474 nM

Nc1cc(Cl)c(-c2cc(C3(S(=O)(=O)C4CC4)CC3)nc(N3CCOCC3)n2)cn1 [Compound S-87]
IC50 [1, 5]: 14 nM
IC50 [1, 4]: 14 nM
IC50 [2]: 386 nM
IC50 [3]: 117 nM
IC50 (PI3K-γ kinase (p110γ)): 134 nM
IC50 (T47D cells): 101 nM
IC50 (MCF-7 cells): 170 nM

CS(=O)(=O)NC1(c2cc(-c3cnc(N)cc3Cl)nc(N3CCOCC3)n2)CC1 [Compound S-90]
IC50 [1, 4]: 75 nM
